The test system of data set [1] is radiation induced fibrosarcoma (RIF) tumors. Nature of the data set: BPD-mediated vascular PDT of RIF tumors: explicit dosimetry and tumor regrowth (cure index). The class given is in vivo, mice. The method, then: RIF cells were cultured and 30 μl were injected at 1×10^7 cells/ml intradermally over the right shoulders of 6 to 8 weeks old female C3H mice (NCI-Frederick, Frederick, Maryland), as described previously^10-12. Animals were under the care of the University of Pennsylvania Laboratory Animal Resources. All studies were approved by the University of Pennsylvania Institutional Animal Care and Use Committee. Tumors were treated at a size of ˜3 to 5 mm in diameter. Fur within the region of tumor inoculation was clipped prior to injection of cells, and the treatment area was depilated with Nair (Church & Dwight Co., Inc., Ewing, New Jersey) at least 24 h before measurements. Mice were provided a chlorophyll-free (alfalfa-free) rodent diet (Harlan Laboratories Inc., Indianapolis, Indiana) starting at least 10 days prior to treatment to eliminate the fluorescence signal from chlorophyll-breakdown products, which have a similar emission range to the BPD fluorescence spectra used to determine the concentration of BPD in the tumor. During the delivery of PDT, mice were kept under anesthesia on a heat pad at 38° C.
PDT was delivered using an optical fiber with a microlens attachment coupled to a diode laser. A 690 nm laser (B&W Tek Inc., Newark, Delaware) was used for PDT after a 15 min drug-light interval. The in-air fluence rate (ϕair) is defined as the calculated irradiance determined by the laser power divided by the treatment area (1 cm diameter spot size). The in-air fluence was calculated by multiplying the in-air fluence rate by the treatment time. […]
The in vivo tissue oxygen partial pressure pO2 was measured during PDT treatment using a phosphorescence-based […] (OxyLite Pro, Oxford Optronix, Oxford, United Kingdom). […] The ROS concentration ([ROS]) was calculated by multiplying the measured pO2 with the […] solubility in tissue, which is 1.295 μM/mmHg.^5 Measured [ROS]0 and [ROS](t) were used to calculate reacted oxygen species using the macroscopic singlet oxygen model.^14,15 […]
Tumor volumes were measured daily after PDT. […]

The conditions of data set [2]: as printed in b218; cited from earlier work.

`C=Cc1c(C)c2cc3nc(cc4[nH]c(cc5nc(cc1[nH]2)C(C)=C5CCC(=O)O)c(CCC(=O)OC)c4C)[C@@]1(C)C3=CC=C(C(=O)OC)[C@H]1C(=O)OC` [BPD, benzoporphyrin derivative monoacid ring A]: the “change of BPD concentration before vs after PDT treatment” value in data set [1] (in tumor, FIG. 18) is reported as “not significant changes”. Also, the “[ROS]rx threshold dose smaller than value for conventional BPD-mediated PDT using DLI of 3 hrs” value in data set [1] (mouse, in vivo) was “about 4.3 times”. For the same molecule, in data set [1] (vascular BPD-PDT, DLI 15 min), the “threshold dose for [ROS]rx” value amounted to 0.23 mM. Moreover, the β in data set [2] is 11.9 µM.

Source of the values: patent US12324927B2, “Methods and systems for photodynamic therapy calculations” (THE TRUSTEES OF THE UNIVERSITY OF PENNSYLVANIA, priority 2018, dated 2025).
